# Legend:
# [1] = long-term cell viability assays in vitro, comparison of PRC2 inhibitors; assay type: cell-based
# Description: (§1) Response of Compound 1 treatment relative to other EZH2, dual EZH1 and EZH2, or EED inhibitors was analyzed in vitro and in vivo.
# [2] = pharmacokinetics in the ARID1A mutant HT1376 xenograft mouse model; assay type: in vivo
# Description: as §1
# [3] = tested on: ARID1A mutant HT1376 bladder cancer xenografts; assay: HT1376 xenograft tumor growth inhibition; assay type: in vivo, mice; details: ARID1A mutated HT1376 xenograft, 75 mg/kg QD; for tumor growth inhibition (TGI) compared to vehicle: day 27
# Description: Data represented as mean tumor volume+SEM, with n=5 mice per group for all groups except 150 mg/kg, which had n=3. P-values calculated using 2-way ANOVA up to day 30, ns=p>0.05, *p<0.05. […]
# Cell line derived xenograft tumor experiments were performed at WuXi AppTec, Shanghi, China. Patient derived xenograft experiments were performed at Crown BioScience Inc., Taicang Jiangsu Province, China, or Champions Oncology, Rockville, MD, US. All the procedures related to animal handling, care and the treatment in the xenograft studies were performed according to the guidelines approved by the Institutional Animal Care and Use Committee (IACUC) of WuXi AppTec or Crown BioScience Inc. following the guidance of the Association for Assessment and Accreditation of Laboratory Animal Care (AAALAC). The mice were kept in individual ventilation cages at constant temperature and humidity with 3-5 animals in each cage. Mice were checked daily for any effects of tumor growth and/or treatments on normal behavior such as mobility, food and water consumption, body weight gain/loss, eye, and any other abnormal effects. […] Animal body weight was monitored regularly as an indirect measurement of toxicity. Supplemented diet was provided after cell inoculation for all groups to help with body weight maintenance. If an animal lost >15% body weight, their treatments were suspended accordingly then resumed when body weight loss returned to <10%.
# The HT1376 and HT1197 bladder cancer cell lines and Karpas-422 lymphoma cell line were expanded in vitro under routine subculturing procedures in the medium recommended by the supplier, harvested while in the exponential growth phase, and counted for tumor inoculation. For HT1376 and Karpas-422 studies, female CB17 SCID mice at 6-8 weeks of age were used for study initiation; for the HT1197 study, female Balb/c nude mice at 6-8 weeks of age were used. Each mouse was inoculated subcutaneously in the right flank with tumor cells in 0.2 ml PBS mixed with Matrigel (BD Biosciences); 5×10^6 cells per injection were used for HT1376 and Karpas-422 cell lines and 1×10^7 cells per injection for HT1197 cells. […] Mice undergoing extended dosing holidays due to body weight loss (>10 days, n=2 mice in the 150 mg/kg Compound 1 HT1376 group only), were censored from the study and not included in the data presented.
# Tumor size was measured thrice weekly in two dimensions using a caliper, and the volume was expressed in mm3 using the formula: V=0.5a×b2 where a and b are the long and short diameters of the tumor, respectively. TGI was calculated for each group using the formula: TGI (%)=[1−(Ti−T0)/(Vi−V0)]×100; Ti is the average tumor volume of a treatment group on a certain day, T0 is the average tumor volume of the treatment group on the day of treatment start, Vi is the average tumor volume of the vehicle control group on the same day with Ti, and V0 is the average tumor volume of the vehicle group on the day of treatment start.
# To further explore the potential dose dependence of Compound 1 on tumor growth inhibition in vivo, HT1376 xenograft studies were carried out using Compound 1 doses from 10 to 150 mg/kg QD orally once daily (PO, QD). […]
# [4] = CB17 SCID, mouse, in vivo, 75 mg/kg
# [5] = Day 1, 75 mg/kg, HT1376 xenograft mouse, plasma
SMILES,"Cmax [2, 4] [ng/mL]","T1/2 [2, 4] [h]","Tmax [2, 4] [h]","AUClast (hg*ng/mL) ([2]; mouse, in vivo, 75 mg/kg)","Cmax ([2]; mouse, in vivo, 75 mg/kg) [ng/mL]","T1/2 ([2]; mouse, in vivo, 75 mg/kg) [h]","Tmax ([2]; mouse, in vivo, 75 mg/kg) [h]","AUClast (hg*ng/mL) [2, 5] [hg*ng/mL]","Cmax [2, 5] [ng/mL]","T1/2 [2, 5] [h]","Tmax [2, 5] [h]",GI50 [1] [nM],tumor growth inhibition (TGI) compared to vehicle [3] [%],tumor volume course during treatment [3]
COc1cc(C)[nH]c(=O)c1CNC(=O)c1c(C)n([C@H](C)C2CCN(CC(F)(F)F)CC2)c2ccccc12 [CPI-1205],50800,1.24,0.50,59900,–,–,–,–,–,–,–,574,40,–
Cc1ncccc1-c1cnc(NCc2c(F)ccc3c2CCO3)n2cnnc12 [MAK683],–,–,–,13100,5660,1.18,1.00,–,–,–,–,73,–,–

# Now from value to compound, other results behind:
"Cmax [2, 4] [ng/mL]","T1/2 [2, 4] [h]","Tmax [2, 4] [h]","AUClast (hg*ng/mL) ([2]; mouse, in vivo, 75 mg/kg)","Cmax ([2]; mouse, in vivo, 75 mg/kg) [ng/mL]","T1/2 ([2]; mouse, in vivo, 75 mg/kg) [h]","Tmax ([2]; mouse, in vivo, 75 mg/kg) [h]","AUClast (hg*ng/mL) [2, 5] [hg*ng/mL]","Cmax [2, 5] [ng/mL]","T1/2 [2, 5] [h]","Tmax [2, 5] [h]",SMILES,GI50 [1] [nM],tumor growth inhibition (TGI) compared to vehicle [3] [%],tumor volume course during treatment [3]
–,–,–,3380,3740,1.01,0.50,–,–,–,–,COc1cc(C)[nH]c(=O)c1CN1CCc2c(Cl)cc([C@H](OC)C3COC3)c(Cl)c2C1=O [PF-06821497],~5,41,–
–,–,–,–,–,–,–,7600,3090,3.00,1.33,Cc1cc(C)c(CNC(=O)c2cc(Cl)c3c(c2C)O[C@@](C)([C@H]2CC[C@H](N(C)C)CC2)O3)c(=O)[nH]1 [valemetostat],18,–,did not reach full regression
–,–,–,–,–,–,–,23200,9530,1.43,0.50,CCN(c1cc(-c2ccc(CN3CCOCC3)cc2)cc(C(=O)NCc2c(C)cc(C)[nH]c2=O)c1C)C1CCOCC1 [tazemetostat],385,32,–

# Reference: patent US20260021082A1, “EZH2 INHIBITION THERAPIES FOR THE TREATMENT OF AT-RICH INTERACTIVE DOMAIN-CONTAINING PROTEIN 1A (ARID1A) MUTATED CANCERS” (Constellation Pharmaceuticals, Inc., priority 2022, published 2026)
